Measured values reported in patent US8192962B2, “Processes for detecting toxic substances” (Daikin Industries, Ltd., priority 2001, dated 2012).

Test system: Genes belonging to other category
Test: DNA chip mRNA expression in yeast, genes belonging to other category (Table 9)
Format: cell-based, Saccharomyces cerevisiae S288C
Method in brief: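 S. cerevisiae S288C grown at 25° C. in YPD to log phase, then exposed 2 h to a toxicant at a growth-inhibiting, non-lethal concentration; untreated cells as control. Poly(A) mRNA reverse-transcribed with Cy3-dUTP or Cy5-dUTP, hybridized >12 h at 65° C. to whole-genome yeast DNA chip; value = fluorescence ratio treated/untreated.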

[Cl][Cd][Cl] [(2), CdCl2]
The level of expressed mRNA in the presence of chemical substance/The level of expressed mRNA in the absence of chemical substance (yeast gene YKL008C): 0.6
The level of expressed mRNA in the presence of chemical substance/The level of expressed mRNA in the absence of chemical substance (yeast gene YKL013C): 0.9
The level of expressed mRNA in the presence of chemical substance/The level of expressed mRNA in the absence of chemical substance (yeast gene YKL039W): 1.1
The level of expressed mRNA in the presence of chemical substance/The level of expressed mRNA in the absence of chemical substance (yeast gene YKL096W): 0.6
The level of expressed mRNA in the presence of chemical substance/The level of expressed mRNA in the absence of chemical substance (yeast gene YKL165C): 2.0
The level of expressed mRNA in the presence of chemical substance/The level of expressed mRNA in the absence of chemical substance (yeast gene YKL193C): 0.8
The level of expressed mRNA in the presence of chemical substance/The level of expressed mRNA in the absence of chemical substance (yeast gene YLR120C): 1.9
The level of expressed mRNA in the presence of chemical substance/The level of expressed mRNA in the absence of chemical substance (yeast gene YLR136C): 9.0
The level of expressed mRNA in the presence of chemical substance/The level of expressed mRNA in the absence of chemical substance (yeast gene YLR178C): 6.9
The level of expressed mRNA in the presence of chemical substance/The level of expressed mRNA in the absence of chemical substance (yeast gene YLR250W): 1.0
The level of expressed mRNA in the presence of chemical substance/The level of expressed mRNA in the absence of chemical substance (yeast gene YLR327C): 3.3
The level of expressed mRNA in the presence of chemical substance/The level of expressed mRNA in the absence of chemical substance (yeast gene YLR356W): 2.9
The level of expressed mRNA in the presence of chemical substance/The level of expressed mRNA in the absence of chemical substance (yeast gene YLR362W): 1.2
The level of expressed mRNA in the presence of chemical substance/The level of expressed mRNA in the absence of chemical substance (yeast gene YLR391W): 0.7
The level of expressed mRNA in the presence of chemical substance/The level of expressed mRNA in the absence of chemical substance (yeast gene YLR429W): 1.0
The level of expressed mRNA in the presence of chemical substance/The level of expressed mRNA in the absence of chemical substance (yeast gene YMR004W): 0.9
The level of expressed mRNA in the presence of chemical substance/The level of expressed mRNA in the absence of chemical substance (yeast gene YMR094W): 0.5
The level of expressed mRNA in the presence of chemical substance/The level of expressed mRNA in the absence of chemical substance (yeast gene YMR104C): 14.3
The level of expressed mRNA in the presence of chemical substance/The level of expressed mRNA in the absence of chemical substance (yeast gene YMR219W): 1.1
The level of expressed mRNA in the presence of chemical substance/The level of expressed mRNA in the absence of chemical substance (yeast gene YMR226C): 1.8
The level of expressed mRNA in the presence of chemical substance/The level of expressed mRNA in the absence of chemical substance (yeast gene YMR275C): 0.7
The level of expressed mRNA in the presence of chemical substance/The level of expressed mRNA in the absence of chemical substance (yeast gene YMR276W): 1.4
The level of expressed mRNA in the presence of chemical substance/The level of expressed mRNA in the absence of chemical substance (yeast gene YMR314W): 1.2
The level of expressed mRNA in the presence of chemical substance/The level of expressed mRNA in the absence of chemical substance (yeast gene YNL006W): 2.1
The level of expressed mRNA in the presence of chemical substance/The level of expressed mRNA in the absence of chemical substance (yeast gene YNL007C): 2.4
The level of expressed mRNA in the presence of chemical substance/The level of expressed mRNA in the absence of chemical substance (yeast gene YNL093W): 6.4
The level of expressed mRNA in the presence of chemical substance/The level of expressed mRNA in the absence of chemical substance (yeast gene YNL333W): 1.4
The level of expressed mRNA in the presence of chemical substance/The level of expressed mRNA in the absence of chemical substance (yeast gene YNR010W): 1.2
The level of expressed mRNA in the presence of chemical substance/The level of expressed mRNA in the absence of chemical substance (yeast gene YNR069C): 1.3
The level of expressed mRNA in the presence of chemical substance/The level of expressed mRNA in the absence of chemical substance (yeast gene YOL013C): 1.0
The level of expressed mRNA in the presence of chemical substance/The level of expressed mRNA in the absence of chemical substance (yeast gene YOL164W): 4.4
The level of expressed mRNA in the presence of chemical substance/The level of expressed mRNA in the absence of chemical substance (yeast gene YOR036W): 0.9
The level of expressed mRNA in the presence of chemical substance/The level of expressed mRNA in the absence of chemical substance (yeast gene YOR117W): 1.3
The level of expressed mRNA in the presence of chemical substance/The level of expressed mRNA in the absence of chemical substance (yeast gene YOR124C): 1.1
The level of expressed mRNA in the presence of chemical substance/The level of expressed mRNA in the absence of chemical substance (yeast gene YOR132W): 1.6
The level of expressed mRNA in the presence of chemical substance/The level of expressed mRNA in the absence of chemical substance (yeast gene YOR157C): 1.3
The level of expressed mRNA in the presence of chemical substance/The level of expressed mRNA in the absence of chemical substance (yeast gene YOR181W): 0.9
The level of expressed mRNA in the presence of chemical substance/The level of expressed mRNA in the absence of chemical substance (yeast gene YOR185C): 1.3
The level of expressed mRNA in the presence of chemical substance/The level of expressed mRNA in the absence of chemical substance (yeast gene YOR198C): 0.7
The level of expressed mRNA in the presence of chemical substance/The level of expressed mRNA in the absence of chemical substance (yeast gene YOR259C): 1.1
The level of expressed mRNA in the presence of chemical substance/The level of expressed mRNA in the absence of chemical substance (yeast gene YOR261C): 1.4
The level of expressed mRNA in the presence of chemical substance/The level of expressed mRNA in the absence of chemical substance (yeast gene YOR288C): 1.3
The level of expressed mRNA in the presence of chemical substance/The level of expressed mRNA in the absence of chemical substance (yeast gene YOR355W): 0.6
The level of expressed mRNA in the presence of chemical substance/The level of expressed mRNA in the absence of chemical substance (yeast gene YOR383C): 4.3
The level of expressed mRNA in the presence of chemical substance/The level of expressed mRNA in the absence of chemical substance (yeast gene YPL089C): 1.0
The level of expressed mRNA in the presence of chemical substance/The level of expressed mRNA in the absence of chemical substance (yeast gene YPL109C): 2.5
The level of expressed mRNA in the presence of chemical substance/The level of expressed mRNA in the absence of chemical substance (yeast gene YPL149W): 1.5
The level of expressed mRNA in the presence of chemical substance/The level of expressed mRNA in the absence of chemical substance (yeast gene YPL154C): 3.3
The level of expressed mRNA in the presence of chemical substance/The level of expressed mRNA in the absence of chemical substance (yeast gene YPR103W): 1.1
The level of expressed mRNA in the presence of chemical substance/The level of expressed mRNA in the absence of chemical substance (yeast gene YPR108W): 1.0
